The values below come from US6703540B1, “Transformation of plants with a chloroperoxidase gene to enhance disease resistance” (The United States of America as represented by the …, priority 2000, dated 2004).

In assay [1] the test system is Aspergillus flavus. In words: Comparative lethalities of oxidants to Aspergillus flavus. In kind it is cell-based. Conditions: mM concentrations of oxidants that produce 50% killing of Aspergillus flavus.
The subject of a further assay is endogenous peroxidase. Nature of the assay: Endogenous peroxidase activity in leaf extracts assayed with guaiacol. In kind it is biochemical, Nicotiana tabacum. Conditions: guaiacol assay. The text has this: The validity of the assay procedure for CPO-P activity in transgenic tobacco was established in the following manner.
Assay [2] deals with Aspergillus flavus. Conditions: H2O2 converted to hypochlorite by myeloperoxidase, in vitro; cited from earlier work.

For the molecule `OCl` [HOCl, hypochlorous acid], the LD50 with Aspergillus flavus [1] amounted to 0.30 mM.

The molecule `CC(=O)OO` [HOOAc, peracetic acid] came in with an LD50 with Aspergillus flavus [1] of 0.15 mM. As to `[N-]=[N+]=[N-].[Na+]` [NaN3], the “inhibition of endogenous peroxidase activity in leaf extracts (in words)” value in the assay on endogenous peroxidase is given as “completely inhibited”. Regarding `OO` [Plant H2O2, hydrogen peroxide], the LD50 with Aspergillus flavus [1] is recorded as 18.00 mM.

B1: myeloperoxidase: animal haloperoxidase converting hydrogen peroxide to hypochlorous acid (protein, UniProt P05164 165-745, looked up)
Myeloperoxidase: VTCPEQDKYRTITGMCNNRRSPTLGASNRAFVRWLPAEYEDGFSLPYGWTPGVKRNGFPVALARAVSNEIVRFPTDQLTPDQERSLMFMQWGQLLDHDLDFTPEPAARASFVTGVNCETSCVQQPPCFPLKIPPNDPRIKNQADCIPFFRSCPACPGSNITIRNQINALTSFVDASMVYGSEEPLARNLRNMSNQLGLLAVNQRFQDNGRALLPFDNLHDDPCLLTNRSARIPCFLAGDTRSSEMPELTSMHTLLLREHNRLATELKSLNPRWDGERLYQEARKIVGAMVQIITYRDYLPLVLGPTAMRKYLPTYRSYNDSVDPRIANVFTNAFRYGHTLIQPFMFRLDNRYQPMEPNPRVPLSRVFFASWRVVLEGGIDPILRGLMATPAKLNRQNQIAVDEIRERLFEQVMRIGLDLPALNMQRSRDHGLPGYNAWRRFCGLPQPETVGQLGTVLRNLKLARKLMEQYGTPNNIDIWMGGVSEPLKRKGRVGPLLACIIGTQFRKLRDGDRFWWENEGVFSMQQRQALAQISLPRIICDNTGITTVSKNNIFMSNSYPRDFVNCSTLPALNLASWREAS
For B1, in the assay with Aspergillus flavus [2], the “increase in lethality against Aspergillus flavus” value is reported as no more than 90 fold.
